Results on two compounds are retold here after publication PMC12154284, “FYCO1 Peptide Analogs: Design and Characterization of Autophagy Inhibitors as Co-Adjuvants in Taxane Chemotherapy of Prostate Cancer” (International Journal of Molecular Sciences, 2025).

In one test the test system is MCF-7 cells. Description: MTS cell viability, MCF-7. The class given is cell-based. Particulars: 72 h, 0.0025 to 5 μM, n = 4. As for the experimental part: (§1) The study was conducted on several cancer cells. Human CRPC cell lines (PC-3 and DU145) were purchased from the American Type Culture Collection (ATCC, Manassas, VA, USA) and cultured at 37 °C and 5% CO2 in RPMI 1640 (EuroClone, Milano, Italy) supplemented, respectively, with 7.5% (PC3) and 5% (DU145) FBS (Gibco, ThermoFisher Scientific, Waltham, MA, USA), 1% L-glutamine, and antibiotics (100 IU/mL penicillin G). […]
(§2) For viability studies, MTS (Cell Titer 96 Aqueous One Solution Cell Proliferation Assay) (Promega, Nacka, Sweden) and 3-(4,5-dimethylthiazole-2-yl)-2,5-diphenyltetrazolium bromide (MTT) (Sigma-Aldrich, St. Louis, MO, USA) assays were conducted. […] The absorbance (λ = 550 nm) was measured by an EnSpire Multimode Plate reader (Perkin Elmer, Milano, Italy). The absorbance value of untreated cells was set at 100% (control), and the viability of treated cells was expressed as a percentage of the control. […] After 72 h, cell viability was assessed using an MTS assay according to the manufacturer’s protocol using a 96-well-plate spectrophotometer (Varioskan Flash Multimode Reader; ThermoFisher Scientific, Waltham, MA, USA) set at λ = 490 nm. The absorbance value of untreated cells was set at 100% (control), and the viability of treated cells was expressed as a percentage of the control. […]

Test [1] deals with LC3-I and LC3-II in PC-3 cells. The experiment in a line: Western blot of LC3-I and LC3-II in PC-3 cells. It is filed as cell-based, Human. As for the experimental part: (§3) PC-3 cells were plated at 2 × 10^5 cells/dish in 6 cm dishes and treated with different compounds. At the end of the treatments the cells were lysed in RIPA buffer. Protein extracts (15–35 μg) were resuspended in presence of reducing Sample buffer (Bio-Rad Laboratories, Segrate, Milano, Italy), heated at 95 °C for 5 min and separated by SDS-PAGE WB. Proteins were transferred onto nitrocellulose or PVDF membranes. After blocking with nonfat dried milk, membranes were incubated with anti-ATG5 (1:1000) (#12994) Cell Signaling Technology Inc. (Boston, MA, USA), anti-LC3 (1:1000) (L8918) (Sigma-Aldrich), anti-SQSTM1/p62 (1:2000) (PA5-20839) (Thermo Fisher Scientific, Waltham, MA, USA), anti-cleaved-caspase-3 (1:500) (#9664) Cell Signaling Technology Inc. primary antibodies overnight at 4 °C. Horseradish peroxidase (HRP) conjugated secondary anti-rabbit or anti-mouse antibodies were used for 1 h at room temperature and the membranes were processed using chemiluminescence kit Cyanagen Ultra (Cyanagen, Bologna, Italy). In each WB experiment alpha-tubulin expression (T6199) (Sigma-Aldrich, St. Louis, MO, USA) was evaluated as a protein control. Relative optical density of the bands was assessed by ImageJ software (version 1.54g). Uncropped WB images are available in the Supporting Information.

A further test deals with A375 cells. Description: MTS cell viability, A375. The class given is cell-based. Particulars: 72 h, 0.0025 to 5 μM, n = 4. As for the experimental part: as §1, §2
The test system of a further test is A549 cells. Description: MTS cell viability, A549. It is filed as cell-based, human. Particulars: 72 h, 0.0025 to 5 μM, n = 4. The method, then: as §1, §2
The target in test [2] is human recombinant His-tagged LC3B (Homo sapiens, UniProt Q9GZQ8). The experiment in a line: MST binding to human recombinant His-tagged LC3B. The conditions noted are these: Table S1.
Procedure: A constant concentration of red-labelled LC3B (10 nM) was incubated with sixteen 1:1 serial dilutions of peptides (concentration details are consultable in the Supplementary Materials, Table S1). PBS-T (phosphate-buffered saline + 0.05% Tween™ 20), from NanoTemper Technologies, with 2.5% dimethyl sulfoxide (DMSO) (Product No. D8418; Sigma-Aldrich, Saint Louis, MO, USA) was used as buffer. After 15 min of incubation at room temperature, samples were loaded into standard capillaries (Product No. MO-K022; NanoTemper Technologies) and analyzed at 25 °C with 20% excitation power and medium MST power (40%) using the “Binding Affinity” mode available in the MO.Control v1.6 software (NanoTemper Technologies GmbH, München, Germany). Prior to Kd determination, peptide auto-fluorescence was assessed. Data analysis was performed using MO.Affinity Analysis v2.3 software (NanoTemper Technologies GmbH, München, Germany) applying the Kd model for fitting the binding curve, while the figures were generated using GraphPad Prism v8.0.2 software (GraphPad, Boston, MA, USA).
Two independent experiments were performed to determine the Kd value.
RA = Response Amplitude; SNR = Signal -to-Noise Ratio.
Test [3] concerns cleaved caspase-3 in PC-3 cells. The experiment in a line: Western blot of cleaved caspase-3 in PC-3 cells. The conditions noted are these: AM10, Doc (25 nM) or both, 48 h. The class given is cell-based, Human. As for the experimental part: as §3
(In general: In western blotting, separated proteins are transferred to a membrane and probed.)

For another test, the system named is PC-3 cells. Description: MTT cell viability, PC-3. The class given is cell-based, Human. As for the experimental part: The study was conducted on several cancer cells. Human CRPC cell lines (PC-3 and DU145) were purchased from the American Type Culture Collection (ATCC, Manassas, VA, USA) and cultured at 37 °C and 5% CO2 in RPMI 1640 (EuroClone, Milano, Italy) supplemented, respectively, with 7.5% (PC3) and 5% (DU145) FBS (Gibco, ThermoFisher Scientific, Waltham, MA, USA), 1% L-glutamine, and antibiotics (100 IU/mL penicillin G). Luminal A MCF-7 breast cancer cells (ATCC, Manassas, VA, USA) were cultured in Dulbecco’s Modified Eagle Medium/Nutrient Mixture F-12 (DMEM-F12, Gibco Laboratories, Waltham, MA, USA) supplemented with 10% fetal bovine serum (FBS, Gibco Laboratories, Waltham, MA, USA), 1% penicillin/streptomycin (Gibco Laboratories), and 1% L-glutamine (Gibco Laboratories). A549 human lung cancer cell line (ATCC, Manassas, VA, USA) were cultured in Dulbecco’s modified eagle medium (DMEM, Lonza, Switzerland) supplemented with 10% FBS (Gibco Laboratories, Waltham, MA, USA), 1% of 100 u/mL penicillin/streptomycin (Gibco Laboratories), and 1% L-glutamine (Gibco Laboratories). […]
as §2

The next test deals with autophagy in PC-3 cells. Description: Autophagosome formation and autophagic flux in PC-3 cells (LC3-I, LC3-II, p62). The class given is cell-based, Human. Particulars: as evidenced by LC3-I. As for the experimental part: as §3
The next test relates to DU145 cells. The experiment in a line: MTT cell viability, DU145 (ATG5-deficient). The conditions noted are these: 72 h, dose printed 5 mM, n = 6. It is filed as cell-based, Human. As for the experimental part: as §1, §2
The test system of the next test is p62 in PC-3 cells. The experiment in a line: Western blot of p62 (SQSTM1) in PC-3 cells. The class given is cell-based, Human. Particulars: 72 h and 96 h. The method, then: as §3
Another test deals with LC3B. Particulars: eicosapeptide, ref [30]; cited from earlier work. An excerpt:
This small protein sequence consists of four conserved residues that can be succinctly represented as a sequence of “X0–X1–X2–X3”, where X0 represents an aromatic residue (Trp/Phe/Tyr), X1 and X2 can denote any amino acids (often acidic or hydrophobic residues), and X3 signifies a large hydrophobic residue such as Leu, Val, or Ile. Consequently, the LIR domain can be considered a promising starting poi ... || To measure the dissociation constants (Kd) of the peptides on human recombinant His-tagged LC3B protein, MST experiments were carried out on a Monolith NT.115^Pico instrument (see the Materials and Methods section for details). […] The electrostatic interactions between the new peptides and LC3B’s positively charged surface—defined by the residues K49, K51, R69, and R70—correlated with low predicted ΔG* values, explaining their improved ...

As a reminder, the Kd is the constant that tells how readily two partners part at equilibrium.

In the case of `CC[C@H](C)[C@H](NC(=O)[C@H](CC(=O)O)NC(=O)[C@H](Cc1ccc(I)cc1)NC(=O)[C@@H](NC(=O)[C@H](C)NC(=O)[C@@H](N)CC(=O)O)C(C)C)C(=O)N[C@@H](CCSC)C(=O)N[C@H](C(=O)N[C@H]1CSSC[C@@H](C(=O)O)NC(=O)[C@H](CCC(=O)O)NC(=O)[C@H](CCC(=O)O)NC1=O)[C@@H](C)O` [AM10], the MCF-7 cell viability entry in the test with MCF-7 cells is recorded as “concentration-dependent reduction in cell viability”. The “LC3-I and LC3-II expression, 48 h” value in test [1] (5 µM, 48 h) was “significantly reduced the level of LC3-I and LC3-II”. Moreover, the “LC3-I and LC3-II expression, 72 h” value in [1] (72 h) was “retains the ability to inhibit both LC3-I and LC3-II”. In addition, the “LC3-I / LC3-II expression, Doc/AM10 experiment” value in test [1] (AM10, Doc (25 nM) or both, 48 h) is “reduces the expression of both LC3-I and LC3-II”. The A375 cell viability entry in the test with A375 cells is “concentration-dependent reduction in cell viability”. Moreover, the A549 cell viability result with A549 cells is reported as “concentration-dependent reduction in cell viability”. Moreover, the “Response Amplitude (RA)” value in [2] is recorded as 2.8. The “cleaved caspase-3 / apoptosis” value in [3] was “does not induce caspase-3 activation”. The PC-3 cell viability entry with PC-3 cells (MTT, 72 h, 0.0025-5 μM (method), n = 6) is reported as “all peptides reduce cell viability in a significant dose-dependent manner starting from the 0.025 mM dose up to the 5 mM dose”. Besides, the “PC-3 cell viability (Conclusions)” value in the test on PC-3 cells (summary statement) is listed as “diminished cell viability”. The “autophagosome formation and autophagic flux (Conclusions)” value with autophagy in PC-3 cells was “inhibited autophagosome formation and autophagic flux”. Also, the DU145 cell viability entry in the test with DU145 cells is listed as “no effect on cell viability”. Also, the p62 expression result in the test with p62 in PC-3 cells is given as “the expression of p62 increases significantly”.

Regarding RDDAV2DIITDEEαCQIQEW [Comb1], the Kd at LC3B was 120 nM.
